The results in this text go back to ChEMBL document CHEMBL1201862, “PubChem BioAssay data set” (2004).

Test systems include DLD-1; DMS-273; HOP-18; KM-20L2; LXFL 529; SNB-78; XF498; DMS-114; RXF 631.
Assay in all cases: growth of human tumour cells (NCI), 48 h

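These data come from cells grown in 96-well plates and exposed to compound for 48 hours at five concentrations. GI50 is the concentration that inhibits growth by half.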 The source made the active and inactive calls. No stated cut-off is given here; in the data, active = GI50 up to about 1.1 µM and inactive = higher. A value given as a limit tells only on which side of the number the result lay.

Turning to `O=C1CC(c2ccccc2)=Nc2ccccc2N1`, the GI50 in the assay on DLD-1, with DMS-273, with HOP-18, in the assay with KM-20L2, in the assay on LXFL 529 and in the assay on SNB-78 was > 100 µM (inactive) throughout. Further, in the assay with XF498, the GI50 is > 100 µM (inactive).

For the molecule `O=C1CC(CC(=O)C2CCCCC2=O)C(=O)N1` (stereo unspecified), the GI50 in the assay with DLD-1, in the assay on DMS-114, in the assay on DMS-273, in the assay on HOP-18, with KM-20L2 and in the assay on LXFL 529 was > 100 µM (inactive) each time. Also, the GI50 in the assay on SNB-78 and in the assay on XF498 was > 100 µM (inactive) throughout.

For the molecule `COc1cc(/C=N/N=C(\N)NO)c(Cl)cc1O`, the GI50 was > 10 µM (inactive) with DLD-1, 24.3 µM (inactive) in the assay on DMS-114, > 100 µM (inactive) in the assay with LXFL 529 and > 100 µM (inactive) in the assay with SNB-78.

On to `COc1ccc(NC(=O)CC(=O)n2nc(-c3ccccc3)c(/N=N/c3ccccc3C)c2-c2ccccc2)cc1`, for which the GI50 is 21.6 µM (inactive) in the assay with DLD-1; 24.3 µM (inactive) in the assay on DMS-114; 16.5 µM (inactive) with DMS-273; 42.5 µM (inactive) with HOP-18; > 100 µM (inactive) in the assay on KM-20L2; 40 µM (inactive) in the assay with LXFL 529. Further, the values for the GI50 in the assay on RXF 631 and with XF498 were 33.7 µM (inactive) and 19.3 µM (inactive), respectively.

As for `CC1=C(/C=C/C2=CC(=C\C(=O)O)/CC(C3=C(C)CCCC3(C)C)C2)C(C)(C)CCC1` (stereo unspecified), the GI50 with DLD-1 was 12.2 µM (inactive); with DMS-114 it was 10.9 µM (inactive); in the assay with DMS-273, 13.9 µM (inactive); in the assay with HOP-18, 14 µM (inactive); in the assay with LXFL 529, 13.8 µM (inactive); in the assay on RXF 631 it was 11.1 µM (inactive). For the same molecule, the values for the GI50 in the assay with SNB-78 and in the assay on XF498 were 20.7 µM (inactive) and 14.4 µM (inactive), respectively.

As to `CC(=O)O[C@]12CCCCC1C1(O)C(O)CCCCC12` (stereo partly specified), the GI50 in the assay on DMS-114, in the assay on DMS-273, in the assay on HOP-18, with KM-20L2, in the assay with LXFL 529 and in the assay with SNB-78 was > 100 µM (inactive) throughout.

For the molecule `C=C(COC(C)=O)CC(OC(C)=O)c1ccccc1` (stereo unspecified), the GI50 in the assay with DLD-1, with DMS-114, in the assay on DMS-273, in the assay on KM-20L2, with LXFL 529 and in the assay with SNB-78 was > 100 µM (inactive) each time. Further, the GI50 in the assay on XF498 was > 100 µM (inactive).

For `COc1cc(C2C(Cl)C(=O)N2n2cnc3ccccc3c2=O)ccc1O` (stereo unspecified), the GI50 with DLD-1 was > 100 µM (inactive); with DMS-114 it was 89.1 µM (inactive); in the assay with DMS-273, > 100 µM (inactive); in the assay with HOP-18, 56.6 µM (inactive); in the assay with KM-20L2, > 100 µM (inactive); with LXFL 529, > 100 µM (inactive). In addition, the GI50 in the assay with SNB-78 is > 100 µM (inactive).

On to `CCOC(=O)/C(=C/c1cc(OC)ccc1OC)CC(=O)O`, for which the GI50 is > 31.6 µM (inactive) in the assay with DLD-1; > 100 µM (inactive) with DMS-114; > 100 µM (inactive) in the assay on DMS-273; > 100 µM (inactive) in the assay on HOP-18; > 100 µM (inactive) in the assay with KM-20L2; > 100 µM (inactive) with LXFL 529. Moreover, the results for the GI50 in the assay on RXF 631, in the assay on SNB-78 and with XF498 were > 100 µM (inactive), > 100 µM (inactive) and > 39.3 µM (inactive), respectively.

With `[O-][S+]1CSSC1`, the GI50 in the assay with DLD-1 is 18.7 µM (inactive); in the assay with DMS-114, 4.98 µM (inactive); in the assay with DMS-273, 10.9 µM (inactive); with HOP-18 it was 51.4 µM (inactive); with KM-20L2, 22.8 µM (inactive); in the assay with LXFL 529, 13.5 µM (inactive). Also, the GI50 was 12.3 µM (inactive) in the assay on RXF 631, 20.3 µM (inactive) with SNB-78 and 15.7 µM (inactive) in the assay with XF498.

`N#CC(=C1C=CC(=NO)C=C1)c1ccc(Cl)cc1`: the GI50 was 14.2 µM (inactive) in the assay on DLD-1; 15.4 µM (inactive) in the assay on DMS-114; 6.58 µM (inactive) in the assay with DMS-273; 49 µM (inactive) in the assay on HOP-18; 19.7 µM (inactive) with KM-20L2; 4.97 µM (inactive) with LXFL 529.

As for `N#CC1=C(O)NC(O)=C(C#N)C1c1ccc(C2C(C#N)=C(O)NC(O)=C2C#N)cc1`, the GI50 in the assay with DLD-1 is 55.7 µM (inactive); in the assay on DMS-114 it was > 100 µM (inactive); with DMS-273 it was > 100 µM (inactive); in the assay with HOP-18, > 100 µM (inactive); with KM-20L2, > 100 µM (inactive); in the assay on LXFL 529, > 100 µM (inactive). The GI50 in the assay on RXF 631, in the assay on SNB-78 and in the assay with XF498 was > 100 µM (inactive) each time.

In the case of `Cc1ccc(S(=O)(=O)N(/N=C(\N)Oc2ccc(Cl)cc2)C(=N)Oc2ccc(Cl)cc2)cc1`, the GI50 in the assay with DLD-1, with DMS-114, in the assay with DMS-273, with HOP-18, with KM-20L2 and in the assay with LXFL 529 was > 100 µM (inactive) each time. Further, the GI50 in the assay on SNB-78 and in the assay on XF498 was > 100 µM (inactive) throughout.

As to `c1cc(N(CCn2cccn2)CCn2cccn2)cc(N(CCn2cccn2)CCn2cccn2)c1`, the GI50 in the assay on DLD-1, with DMS-114, with DMS-273, with KM-20L2, in the assay with LXFL 529 and in the assay on RXF 631 was > 100 µM (inactive) each time. Moreover, the GI50 is > 100 µM (inactive) with SNB-78 and 77.6 µM (inactive) with XF498.

Regarding `O=C1NC(=S)NC(=O)C1=Cc1ccc([N+](=O)[O-])o1`, the GI50 with DLD-1 was 16 µM (inactive); with DMS-114, 17.8 µM (inactive); with DMS-273, 18.9 µM (inactive); in the assay on HOP-18 it was 20.7 µM (inactive); in the assay with KM-20L2, 20.1 µM (inactive); with LXFL 529 it was 16.5 µM (inactive). Further, the GI50 with RXF 631 was 19.3 µM (inactive); in the assay on SNB-78, 23.5 µM (inactive); with XF498, 31.6 µM (inactive).

`CC1(C)CC(N2CCN(C3CC(C)(C)NC(C)(C)C3)CC2)CC(C)(C)N1`: the GI50 in the assay with DLD-1, with DMS-114, in the assay on DMS-273, with HOP-18, in the assay with KM-20L2 and with LXFL 529 was > 100 µM (inactive) each time. Further, the GI50 in the assay with RXF 631, in the assay on SNB-78 and in the assay on XF498 was > 100 µM (inactive) each time.

Take `COc1cc2c3cc1Oc1c(OC)c(OC)cc4c1[C@@H](Cc1ccc(O)c(c1)Oc1ccc(cc1)C[C@@H]3N(C)CC2)N(C)CC4.c1ccccc1`: the GI50 was 19.1 µM (inactive) in the assay on DLD-1; 16.3 µM (inactive) in the assay on DMS-273; 5.32 µM (inactive) in the assay with KM-20L2; 12.4 µM (inactive) in the assay on LXFL 529; 47.1 µM (inactive) in the assay with SNB-78; 11.4 µM (inactive) with XF498.

On to `CC1=C(N2CC2)C(=O)c2nc3n(c2C1=O)CCC3O` (stereo unspecified), for which the GI50 with DLD-1 was 1.18 µM (inactive); in the assay on DMS-114, 1.03 µM (active); in the assay with DMS-273, 0.469 µM (active); in the assay on HOP-18, 36.6 µM (inactive); with KM-20L2 it was 0.804 µM (active); with LXFL 529, 0.679 µM (active). For the same molecule, the GI50 in the assay on SNB-78 was 0.0296 µM (active); with XF498 it was 14.9 µM (inactive).
